“Also recorded” adds a separate entry of the source.
System: adult C. triangulifer
Assay: Chlordane residue (body burden), relative composition and metabolism in adult C. triangulifer by ECNI-MS
Assay type: in vivo, Centroptilum triangulifer (WCC 2 clone)
Details: for metabolism by C. triangulifer: 4.3 μg/l technical chlordane; for bioaccumulation in C. triangulifer: in vivo; for relative composition of principal chlordane components or metabolites in mayflies: reared at 4.3 μg/l chlordane; for amount of cis- and trans-chlordane relative to the nonachlors in C. triangulifer: compared to original distribution in technical chlordane
Procedure: Surviving C. triangulifer individuals from the various controls and treatment groups were collected daily as subimagos (pre-adults) from emergence cages. Most subimagos emerging from a given vessel were immediately killed, measured, dried, and weighed. The viability of eggs obtained from females that had been chronically exposed as larvae to the various control and treatment conditions was also assessed. Thus, a few subimagos from certain treatments were kept alive for 24 h (n=8, 5, 8, 6, 10, and 6 for the 4.3, 9.4, 15.4, 27.4, and 56.3 μg/l and control groups, respectively), during which time they molted to the adult stage and were allowed to oviposit into individual glass jars for assessing hatch success as described above. A few adults from the 4.3 μg/l group were frozen intact at […] for later analysis for chlordane residue by electron capture negative ionization mass spectrometry (ECNI-MS). Chiordane residue in adults reared as larvae in 0.005, 0.05, and 0.5 μg/l treatments was also determined.
Chlordane was extracted from water samples by liquid-liquid extraction in a separatory funnel with three aliquots of hexane. PCB204 (2,2',3,4,4',5,6,6'-octachlorobiphenyl) was added as a surrogate standard before extraction. Each hexane aliquot was rinsed into the plastic sample bottle after transfer of the water sample and before its addition to the separatory funnel containing the water sample to ensure removal of chlordane adsorbed on the walls. The three hexane aliquots were combined and evaporated with a rotary evaporator and then further evaporated down to 100 μl under nitrogen for the final step. Chlordane components and metabolites were quantified from the relative responses of the surrogate standard and the authentic standards of heptachlor; trans- and cis-chlordane; trans- and cis-nonachlor; and the two metabolites, heptachlor epoxide and oxychlordane (n.b. cis-nonachlor was estimated from the response factor for trans-nonachlor). Adult body burdens and water concentrations of chlordane residue were calculated by comparison of the component areas with that of the surrogate standard to correct for losses during extraction and purification.
Adult mayflies from a given replicate vessel per treatment were dried and combined in lots of five to thirteen organisms for extraction and analysis. The mayflies were ground in 0.5 ml methanol after addition of the surrogate standard PCB204 and extracted by sonication with two 10 ml aliquots of a 1:1 methanol:methylene chloride mixture. Extracts were filtered through pasteur pipettes loaded with approximately 1.0 g of Na2 SO4 and clean glass wool. Chlordane components and the surrogate standard were separated from other components in the extract on 1% deactivated silica (0.8 g) microcolumns (organochlorines were eluted with 20% methylene chloride in hexane).
Five principal chlordane components and two metabolites (heptachlor, cis- and trans-chlordane, cis- and trans-nonachlor, heptachlor epoxide, and oxychlordane) were identified and quantified by ECNI-MS, using a Hewlett Packard 5988/RTE-A mass spectrometer equipped with a Hewlett Packard 5890 GC. Instrumental conditions were: GC -0.25 mm, 30 m DB-5 column (J & W Scientific) held at 60° C. for 2 min, then ramped to 180° C. at 20°/min, to 230° C. at 2°/min, to 280° C. at 10°/min, and then held at 280° C. for 10 min; MS-CH4 pressure 0.45 torr, source temperature 100° C.

## ClC1=C(Cl)C2(Cl)C3C(Cl)C=CC3C1(Cl)C2(Cl)Cl (stereo not drawn) [heptachlor]
  metabolism by C. triangulifer: completely metabolize

## ClC1=C(Cl)[C@]2(Cl)[C@@H]3[C@@H](Cl)[C@@H](Cl)[C@@H](Cl)[C@@H]3[C@@]1(Cl)C2(Cl)Cl [cis-nonachlor]
  metabolism by C. triangulifer: poorly metabolized
  bioaccumulation in C. triangulifer: clear trend for the C. triangulifer mayfly to bioaccumulate
  relative composition of principal chlordane components or metabolites in mayflies: 6±2%

## ClC1=C(Cl)[C@]2(Cl)[C@@H]3[C@@H](Cl)[C@H](Cl)[C@@H](Cl)[C@@H]3[C@@]1(Cl)C2(Cl)Cl [trans-nonachlor]
  metabolism by C. triangulifer: poorly metabolized
  bioaccumulation in C. triangulifer: clear trend for the C. triangulifer mayfly to bioaccumulate
  relative composition of principal chlordane components or metabolites in mayflies: 45±11%
range
  ratio of trans-nonachlor to cis-nonachlor in C. triangulifer: 6.2-8.6

## ClC1=C(Cl)[C@]2(Cl)[C@H]3[C@H]([C@@H](Cl)[C@]4(Cl)O[C@H]34)[C@@]1(Cl)C2(Cl)Cl [oxychlordane]
  bioaccumulation in C. triangulifer: clear trend for the C. triangulifer mayfly to bioaccumulate
  relative composition of principal chlordane components or metabolites in mayflies: 21±13%

## ClC1=C(Cl)C2(Cl)C3C4OC4C(Cl)C3C1(Cl)C2(Cl)Cl (stereo not drawn) [heptachlor epoxide]
  bioaccumulation in C. triangulifer: clear trend for the C. triangulifer mayfly to bioaccumulate
  relative composition of principal chlordane components or metabolites in mayflies: 18±7%

## ClC1=C(Cl)[C@]2(Cl)[C@@H]3C[C@H](Cl)[C@@H](Cl)[C@@H]3[C@@]1(Cl)C2(Cl)Cl (relative stereo) [trans-chlordane]
  metabolism by C. triangulifer: metabolized in part to oxychlordane; also recorded: capable of metabolizing or excreting both isomers equally
  amount of cis- and trans-chlordane relative to the nonachlors in C. triangulifer: Reduced quantities
  relative composition of principal chlordane components or metabolites in mayflies: 5±3%

## ClC1=C(Cl)[C@]2(Cl)[C@@H]3C[C@@H](Cl)[C@@H](Cl)[C@@H]3[C@@]1(Cl)C2(Cl)Cl (relative stereo) [cis-chlordane]
  metabolism by C. triangulifer: metabolized in part to oxychlordane; also recorded: capable of metabolizing or excreting both isomers equally
  amount of cis- and trans-chlordane relative to the nonachlors in C. triangulifer: Reduced quantities
  relative composition of principal chlordane components or metabolites in mayflies: 4±3%
